Measurements taken from patent US20080131475A1, “Methods of Use of Dual Ppar Agonist Compounds and Drug Delivery Devices Containing Such Compounds” (priority 2005, published 2008).

What was measured:
[1] = tested on: restenotic lesion and arterial stenosis in stented coronary arteries; experiment: swine model of restenosis with coronary stents eluting Compound A; format: in vivo; details: juvenile swine, poly-n-butyl methacrylate coated stent containing 200 mg Compound A per stent, coronary artery, 7 or 28 days
Procedure: (§1) The treatment and/or prevention of restenosis in vivo in diabetics and non-diabetics can be evaluated as follows: • 1. The beneficial effects of a compound of the present invention on restenosis are ascertained in a swine model of restenosis. Stainless steel balloon-expandable tubular stents, 18 mm long, are coated with a thin layer of a polymer, i.e., poly-n-butyl methacrylate, containing […] of (R)-1-{4-[5-methyl-2-(4-trifluoromethyl-phenyl)-oxazol-4-ylmethoxy]-benzenesulfonyl}-2,3-dihydro-1H-indole-2-carboxylic acid (Compound A) per stent. Juvenile swine (25-35 kg) undergo placement of bare metal stents which elute Compound A in the left anterior descending, circumflex or right coronary artery. The guiding catheter is used as a reference to obtain a 1.2:1 to 1.4:1 stent-to-artery ratio compared with the baselinevessel diameter. […] At 7 days or 28 days, the animals are euthanized after completion of coronary angiography for quantitative analysis. • Immediately following euthanasia, the hearts are harvested, and the coronary arteries are perfusion-fixed with 10% buffered formalin at 60-80 mm Hg for 30 minutes via the aortic stump. […] Vessel wall expression of proliferating cell nuclear antigen (PCNA) (Santa Cruz Biotechnology), pRb (Pharmingen), monocyte chemotactic protein (MCP)-1 (R&D Systems) or interleukin (IL)-6 (R&D Systems) were evaluated by Western blot analysis. […]

[2] = drug release from coated stent pieces in PBS pH 7.4 or PEG/water; format: physicochemical; details: 2 cm coated stent pieces, PBS pH 7.4 or PEG 400/water 40/60 v/v, 37° C., solutions changed daily
Procedure: Four 2 cm pieces of coated stents as described above are placed into 100 mL of phosphate buffer solution (PBS) having a pH of 7.4. Another 4 pieces from each series are placed into 100 mL polyethylene glycol (PEG)/water solution (40/60 v/v, MW of PEG=400). The stent pieces are incubated at 37° C. in a shaker. The buffer and PEG solutions are changed daily and different assays are performed on the solution to determine the released (R)-1-{4-[5-methyl-2-(4-trifluoromethyl-phenyl)-oxazol-4-ylmethoxy]-benzenesulfonyl}-2,3-dihydro-1H-indole-2-carboxylic acid concentrations. Such assays can show a stable release of (R)-1-{4-[5-methyl-2-(4-trifluoromethyl-phenyl)-oxazol-4-ylmethoxy]-benzenesulfonyl}-2,3-dihydro-1H-indole-2-carboxylic acid from coated stents for more than 45 days. By the term “stable-release of (R)-1-{4-[5-methyl-2-(4-trifluoromethyl-phenyl)-oxazol-4-ylmethoxy]-benzenesulfonyl}-2,3-dihydro-1H-indole-2-carboxylic acid” is meant less than 10% of variation of the drug release. Controlled-release techniques used by a person skilled in the art allow an unexpected easy adaptation of the required drug release rate. […]

[3] = tested on: restenotic lesion formation and arterial stenosis in diabetic swine; experiment: diabetic swine model of restenosis; format: in vivo; details: streptozotocin-diabetic juvenile swine, procedure as in non-diabetic stent model
Procedure: as §1

duration of stable release from coated stents (less than 10% of variation of the drug release) [2]: more than 45 days
SMILES: Cc1oc(-c2ccc(C(F)(F)F)cc2)nc1COc1ccc(S(=O)(=O)N2c3ccccc3C[C@@H]2C(=O)O)cc1 [Compound A, (R)-1-{4-[5-methyl-2-(4-trifluoromethyl-phenyl)-oxazol-4-ylmethoxy]-benzenesulfonyl}-2,3-dihydro-1H-indole-2-carboxylic acid]
extent of restenotic lesion and arterial stenosis [1]: marked reduction | extent of restenotic lesion formation and arterial stenosis [3]: reduction
